Results: US11771084B2, “Preservation of personal care compositions” (SHARON LABORATORIES LTD., priority 2018, dated 2023)
≈ marks a conversion by molar mass, not a printed value. Read-outs that look alike come from different tables or passages of the source.

Experiments:
[1] = Maltol shielding: absorbance at 410 nm, chelators, stainless steel 316; format: physicochemical; conditions: 0.5% solution of 90% Maltol and 10% Polyquaternium-80 in demineralized water, stainless steel 316 chip 12 hr
Source text: Maltol has a metal chelating property. It can bond with metal ions and form a chelate product that can be strongly colored. This reaction is highly likely to happen when maltol is used in a manufacturing process involving steel based equipment. It means that even small quantities of these chelates could induce an undesirable color in a finished cosmetic product. A way to inhibit this phenomenon would be to add to maltol a small quantity of a stronger chelating agent, in order to intercept possible metal ions before Maltol could do so. Thus, an examination of various chelating agents in order to “protect” the Maltol from chelating metal ions was done. Procedure: […]

S. aureus ATCC 6538 = test: MIC evaluation test; format: cell-based, Staphylococcus aureus
Procedure: (§1) The culture is standardized using standard microbiological techniques to have a concentration of very near 1 million cells per milliliter.
(§2) The antimicrobial agent is diluted a number of times, with Tryptic soy broth or sabouraud broth for fungi. After the antimicrobial agent had been diluted, a volume of the standardized inoculums was added to each dilution vessel, bringing the microbial concentration to approximately 1,000,000 cells per milliliter. The inoculated, serially diluted antimicrobial agent was incubated at an appropriate temperature for the test organism, 24 hours for bacteria 48 for yeast and 72 for mold.
(§3) MIC results are expressed in ppm.
(§4) The microorganism strains used for the test were E. coli ATCC 8739, P. aeruginosa ATCC 9027, S. aureus ATCC 6538, C. albicans ATCC 10231, A. niger ATCC 16404.

C. albicans ATCC 10231 = test: MIC evaluation test; format: cell-based, Candida albicans
Procedure: In additional exemplary procedure, minimum inhibitory concentration (MIC) evaluation test with Candida albicans was performed in test tubes. Growth in this case is visually evaluated. A pure culture of a single microorganism was grown in Tryptic soy broth, or sabouraud broth for yeast and mold.
as §1, §2, §3, §4

A. niger ATCC 16404 = test: MIC evaluation test; format: cell-based, Aspergillus brasiliensis (niger)
Procedure: In another exemplary procedure, MIC evaluation test with A. niger was performed in test tubes. Growth in this case is visually evaluated. A pure culture of a single microorganism was grown in Tryptic soy broth, or sabouraud broth for yeast and mold.
as §1, §2, §3, §4

E. coli ATCC 8739 = test: MIC evaluation test; format: cell-based, Escherichia coli
Procedure: as §1, §2, §3, §4

P. aeruginosa ATCC 9027 = test: MIC evaluation test; format: cell-based, Pseudomonas aeruginosa
Procedure: as §1, §2, §3, §4

[2] = formulation on stainless steel 304
Procedure: Procedure: To a 0.5% solution of 90% Maltol and 10% Polyquaternium-80 in demineralized water a chelating agent was added in concentrations of 25 ppm, 50 ppm, 100 ppm, 150 ppm, 200 ppm and 250 ppm, then a chip of stainless steel 316 (˜1×1 cm) was added to the solution for 12 hr.
The absorbance at 410 nm was measured with spectrophotometer Genesys 10uv (Thermo Scientific), the blank was a solution of 0.5% 90% Maltol and 10% Polyquaternium-80 in demineralized water.

[3] = Staphylococcus aureus, ATCC6538
[4] = Pseudomonas aeruginosa, ATCC9027

| Compound | absorbance at 410 nm ([1]; chelator Concentration (%) 0.5) | absorbance at 410 nm ([1]; chelator Concentration (%) 1) | absorbance at 410 nm ([1]; chelator Concentration (%) 2) | absorbance at 410 nm ([1]; chelator Concentration (%) 3) | absorbance at 410 nm ([1]; chelator Concentration (%) 4) | absorbance at 410 nm ([1]; chelator Concentration (%) 5) | also measured |
| --- | --- | --- | --- | --- | --- | --- | --- |
| O=C1O[C@H]([C@@H](O)CO)C(O)=C1O [Ascorbic acid] | 0.182 | 0.162 | 0.145 | 0.155 | 0.101 | 0.06 |  |
| CCCCCCCCCCCC[N+](C)(C)Cc1ccccc1.[Cl-] [Benzyldimethyldodecylammonium chloride] |  |  |  |  |  |  | MIC (S. aureus ATCC 6538; [3]): < 60 µg/mL; MIC (C. albicans ATCC 10231; Candida albicans, ATCC10231): < 60 µg/mL; MIC (A. niger ATCC 16404; Aspergillus niger, ATCC16404): < 60 µg/mL; MIC (E. coli ATCC 8739; Escherichia coli, ATCC8739): < 60 µg/mL; MIC (P. aeruginosa ATCC 9027; [4]): 120 µg/mL |
| O=C(O)CCN(CC(=O)O)CC(=O)O [Beta Alanine diAcetic acid] | 0.133 | 0.039 | 0.045 | 0.124 | 0.067 | 0.098 |  |
| CCCCCCCCCC[N+](C)(C)CCCCCCCCCC.[Cl-] [Didecyldimethylammonium chloride] |  |  |  |  |  |  | MIC (S. aureus ATCC 6538; [3]): < 3 µg/mL; MIC (C. albicans ATCC 10231; Candida albicans, ATCC10231): < 30 µg/mL; MIC (A. niger ATCC 16404; Aspergillus niger, ATCC16404): < 30 µg/mL; MIC (E. coli ATCC 8739; Escherichia coli, ATCC8739): < 3 µg/mL; MIC (P. aeruginosa ATCC 9027; [4]): 15 µg/mL |
| O=C([O-])CN(CCN(CC(=O)O)CC(=O)O)CC(=O)[O-].[Na+].[Na+] [Disodium EDTA, Ethylenediaminetetraacetic acid disodium salt] | 0.022 | 0.009 | 0.004 | 0.002 | 0 | 0 | absorbance at 410 nm ([2]; chelator Concentration (%) 0.5): 0.061; absorbance at 410 nm ([2]; chelator Concentration (%) 1): 0.010; absorbance at 410 nm ([2]; chelator Concentration (%) 2): 0.026; absorbance at 410 nm ([2]; chelator Concentration (%) 3): 0.007; absorbance at 410 nm ([2]; chelator Concentration (%) 4): 0; absorbance at 410 nm ([2]; chelator Concentration (%) 5): 0 |
| CCCCCCCCCCCC[N+](C)(C)C.[Cl-] [Dodecyltrimethylammonium chloride] |  |  |  |  |  |  | MIC (S. aureus ATCC 6538; [3]): < 60 µg/mL; MIC (C. albicans ATCC 10231; Candida albicans, ATCC10231): < 60 µg/mL; MIC (A. niger ATCC 16404; Aspergillus niger, ATCC16404): 360 µg/mL; MIC (E. coli ATCC 8739; Escherichia coli, ATCC8739): < 60 µg/mL; MIC (P. aeruginosa ATCC 9027; [4]): 360 µg/mL |
| CCCCCCCCCCCC(=O)N[C@@H](CCCN=C(N)N)C(=O)OCC [Ethyl Lauroyl Arginate] |  |  |  |  |  |  | MIC (S. aureus ATCC 6538): 500 ppm; MIC (C. albicans ATCC 10231): 10000 ppm; MIC (A. niger ATCC 16404): 20000 ppm; MIC (E. coli ATCC 8739): 2500 ppm; MIC (P. aeruginosa ATCC 9027): 5000 ppm |
| CSCC[C@H](N)C(=O)O [L-Methionine] | 0.113 | 0.391 | 0.393 | 0.102 | 0.311 | 0.096 |  |
| Cc1occc(=O)c1O [Maltol] |  |  |  |  |  |  | MIC (S. aureus ATCC 6538; Staphylococcus aureus, ATCC6538, read-out: MIC): 3800 µg/mL (≈ 30.1 mM); MIC (C. albicans ATCC 10231; Candida albicans, ATCC10231, read-out: MIC): 2250 µg/mL (≈ 17.8 mM); MIC (A. niger ATCC 16404; Aspergillus niger, ATCC16404, read-out: MIC): 3150 µg/mL (≈ 25 mM); MIC (E. coli ATCC 8739; Escherichia coli, ATCC8739, read-out: MIC): 4000 µg/mL (≈ 31.7 mM); MIC (P. aeruginosa ATCC 9027; Pseudomonas aeruginosa, ATCC9027, read-out: MIC): < 1350 µg/mL |
| O=C([O-])[C@H](O)[C@@H](O)[C@H](O)[C@H](O)CO.[Na+] [Sodium gluconate] | 0.022 | 0.04 | 0.042 | 0.045 | 0.005 | 0.006 |  |
| COc1cc(C(=O)[O-])ccc1O.[Na+] [Sodium vanillate] | 0.073 | 0.044 | 0.386 | 0.226 | 0.078 | 0.12 |  |
| COc1cc(C=O)ccc1O [Vanillin] | 0.037 | 0.053 | 0.062 | 0.05 | 0.159 | 0.048 |  |
| Zinc gluconate | 0.231 | 0.136 | 0.207 | 0.096 | 0.147 | 0.058 |  |
